Legend:
Assay type in all cases: cell-based, mouse
[1] = test system: Alp1; test: qRT-PCR of osteogenic marker Alp1 in osteoblasts; settings: 5 days differentiation, siRNA 30 nM, plasmid 1 μg/mL, bongkrekic acid 40 μM, normalized to 18S rRNA, versus respective control
Experimental: (§1) The osteoblasts extracted in Example 1 were transfected with 30 nM of siOpa1, siFis1, and 1 μg/mL of pCMV-Fis1 plasmids, respectively, in substantially the same manner as in Example 2-1, and separate osteoblasts were treated with 40 μM bongkrekic acid, and additionally, the osteoblasts extracted in Example 1 were transfected with 30 nM siBax, which is an siRNA of Bax (Bcl-2-associated X), and 1 μg/mL pCMV-Bax plasmid (Korea Human Gene Bank, ID: mMU001857), respectively, and differentiation of the osteoblasts was induced for 5 days in a medium consisting of alpha MEM (Minimum Essential Media, Hyclone) supplemented with 10% fetal bovine serum (Gibco) and 100 U/mL of penicillin-streptomycin (Gibco) of Example 2-1. As a control for the siRNA, osteoblasts were prepared by transfecting the control siRNA of Example 2-1 in substantially the same manner as the siRNA; as a control for the plasmid, osteoblasts were prepared by transfecting the pCMV-SPORT6 empty vector plasmid into which no gene was inserted in substantially the same manner as the pCMV-Fis1 plasmid; and as a control for the bongkrekic acid, osteoblasts treated with 0.01M Tris solution were prepared.
(§2) qRT-PCR was performed to evaluate the gene expression level of the osteoblasts that underwent ALP staining in Example 3-2. Total RNA was extracted from the cells using QIAzol Lysis Reagent (Qiagen, Germany) and RNeasy Mini Kit (Qiagen, Germany), and cDNA was prepared using PrimeScript RT Reagent Kit (Takara, Japan) according to the manufacturer's instructions. Quantitative RT-PCR was performed using TB Green Premix Ex Taq II (Takara, Japan) and StepOnePlus Real-Time PCR system (Applied Biosystems, USA). Relative gene expression was determined using standard 2(−ΔΔCt) calculations with normalization to 18S rRNA, and information on the primers used is specifically shown in Table 3 below.

[2] = test system: osteoblast mitochondria; test: Osteoblast fluorescence imaging of mitochondrial morphology (fission, donut-shaped mitochondria); settings: osteoblasts, 5 days differentiation, siRNA 30 nM, plasmid 1 μg/mL, bongkrekic acid 40 μM; for formation of donut-shaped mitochondria (confocal images, FIGS. 1A to 1C) / mitochondrial fission (confocal images, FIGS. 1A to 1C): versus control; for mitochondrial fission (quantitative analysis, Zeiss Zen 3.1, FIGS. 1D and 1E) / number of donut-shaped mitochondria (quantitative analysis, FIGS. 1D and 1E): versus respective control
Experimental: To confirm changes in the morphology of osteoblast mitochondria, transgenic mice were prepared to express green fluorescent protein (GFP) specifically in the mitochondrial matrix. Specifically, lgs1^CKI-mitoGFP/CKI-mitoGFP knock-in C57BL/6 female mice were provided by Jeremy Nathans (Johns Hopkins University School of Medicine, MD), Col1a1-Cre male mice were provided by the Korea Research Institute of Bioscience and Biotechnology, and Col1a1-Cre was prepared to be expressed in these mice using the 2.3 kb murine Col1a1 promoter. By mating the prepared C57BL/6 female transgenic mouse with the Col1a1-Cre male mouse, newborn transgenic mice (Col1a1-Cre; Igs1^CKI-mito-GFP/+) that conditionally express GFP only in the mitochondria of osteoblasts were prepared. All animal studies were approved by the Seoul National University Institutional Animal Care and Use Committees.
The skull cells of the prepared transgenic mice that express GFP conditionally only in the mitochondria were treated with 0.25% trypsin (Gibco) for 10 minutes, incubated in 2 mg/mL type 2 collagenase (Worthington) for 30 minutes, and in fresh type 2 collagenase for another 60 minutes. The cells separated from the bone tissue were collected by centrifugation at 1300 rpm for 3 minutes, and the cells were placed on serum and centrifuged to remove debris. To separate living osteoblasts that express GFP in mitochondria, they were stained with 7AAD (Bio-Legend) for 10 minutes (only dead cells were stained) and a flow cytometry technique (Fluorescence-activated cell sorting, FACS) was used.
The osteoblasts extracted in Example 1 were induced to be differentiated in a medium composed of alpha MEM (Minimum Essential Media, Hyclone) supplemented with 10% fetal bovine serum (Gibco) and 100 U/mL penicillin-streptomycin (Gibco) for 5 days. Specifically, the differentiation medium is composed of alpha MEM with 50 μg/mL ascorbic acid (Amreasco), 5 mM beta-glycerophosphate (Sigma), 10% fetal bovine serum (Gibco), and 100 U/mL penicillin-streptomycin (Gibco). Osteoblast differentiation was induced for 5 days.
Short interfering RNA (siRNA) that inhibits the expression of the Opa1 (dynamin-like 120 kDa protein) gene, which induces mitochondrial fusion, and the Fis1 (Mitochondrial fission 1 protein) gene, which induces mitochondrial fission (siOpa1, siFis1, respectively) was transfected into 300,000 osteoblasts per 1 mL at 30 nM each at the same time as differentiation induction using Lipofectamine RNAiMAX Reagent (Invitrogen), and to increase mitochondrial fission, the pCMV-Fis1 plasmid (Korea Human Gene Bank) was transfected into 300,000 osteoblasts per mL at 1 μg/mL at the same time as differentiation induction using TransIT®-LT1 Transfection Reagent (Mirus) to overexpress the Fis1 gene. In addition, the osteoblasts prepared above were treated simultaneously with differentiation with Tris solution-based bongkrekic acid (Sigma, B6179, USA) at a concentration of 40 μM. As a control for the siRNA, osteoblasts were prepared by transfecting the control siRNA in substantially the same manner as the siRNA; as a control for the plasmid, osteoblasts were prepared by transfecting the pCMV-SPORT6 empty vector plasmid into which no gene was inserted in substantially the same manner as the pCMV-Fis1 plasmid; and as a control for the bongkrekic acid, osteoblasts treated with 0.01M Tris solution were prepared. The siRNAs were purchased from Bioneer, Korea and transfected using Lipofectamine RNAimax (Invitrogen, USA) according to the manufacturer's instructions, and specific information on the siRNAs is shown in Table 1 below.
The pCMV-Fis1 plasmid containing full-length mouse Fis1 cDNA (ID: mMU002771) was purchased from the Korea Human Gene Bank, and was transfected into osteoblasts using TransIT-LT1 transfection reagent (Mirus Bio, USA) according to the manufacturer's instructions. […]

[3] = test system: Ibsp; test: qRT-PCR of osteogenic marker Ibsp in osteoblasts; settings: 5 days differentiation, siRNA 30 nM, plasmid 1 μg/mL, bongkrekic acid 40 μM, normalized to 18S rRNA, versus respective control
Experimental: as §1, §2

[4] = test system: osteoblasts; test: Alkaline phosphatase (ALP) staining of differentiation-induced osteoblasts; settings: 5 days differentiation, siRNA 30 nM, plasmid 1 μg/mL, bongkrekic acid 40 μM, versus respective control
Experimental: as §1
To confirm the osteogenic activity of the osteoblasts differentiation-induced in Example 3-1, staining of alkaline phosphatase (ALP), an osteogenic marker, was performed and observed. Specifically, 1 mg of Naphthol AS-MX phosphate (Sigma) was dissolved in 100 μL of N,N-dimethylformamide (Sigma), then 2 mL of 0.1% Fast blue BB salt (Sigma) solution was added and ALP staining was performed at 37° C. for 30 minutes. Osteogenic activity was confirmed by the intensity of staining, and it was evaluated that the darker the staining, the higher the expression of ALP.

| Molecule | expression of Alp1 (qRT-PCR) [1] | formation of donut-shaped mitochondria (confocal images, FIGS. 1A to 1C) [2] | mitochondrial fission (confocal images, FIGS. 1A to 1C) [2] | mitochondrial fission (quantitative analysis, Zeiss Zen 3.1, FIGS. 1D and 1E) [2] | number of donut-shaped mitochondria (quantitative analysis, FIGS. 1D and 1E) [2] | expression of Ibsp (qRT-PCR) [3] | degree of ALP staining (osteogenic activity) [4] |
| --- | --- | --- | --- | --- | --- | --- | --- |
| CO[C@H](C/C=C\C=C\CC/C=C/C[C@H](C)/C=C/C(=C\C(=O)O)CC(=O)O)/C(C)=C\C=C(/C)C(=O)O [bongkrekic acid] | significantly increased | increased compared to the control | increased compared to the control | significantly increased | significantly increased | significantly increased | stronger compared to the respective controls |
| siBax: siRNA of Bax (Bcl-2-associated X); Bioneer ID 12028-1, SEQ ID NO 5 and 6 (chain 1 GCUGCAGAGGAUGAUUGCUTT; chain 2 AGCAAUCAUCCUCUGCAGCTT; chemistry not given here) |  |  |  |  |  |  | weaker compared to the respective controls |
| siFis1: siRNA inhibiting expression of the Fis1 gene; Bioneer ID 66437-1, SEQ ID NO 3 and 4 (chain 1 CUGAUUGAUAAGGCCAUGAUU; chain 2 UCAUGGCCUUAUCAAUCAGUU; chemistry not given here) | significantly decreased | significantly reduced compared to the control | significantly reduced compared to the control | significantly reduced | significantly reduced | significantly decreased | weaker compared to the respective controls |
| siOpa1: siRNA inhibiting expression of the Opa1 gene; Bioneer ID 74143-1, SEQ ID NO 1 and 2 (chain 1 GUGUUCACAACGAAACCAAUU; chain 2 UUGGUUUCGUUGUGAACACUU; chemistry not given here) | significantly increased | increased compared to the control | increased compared to the control | significantly increased | significantly increased | significantly increased | stronger compared to the respective controls |

Reference: patent US20240207211A1, “COMPOSITION FOR PROMOTING BONE FORMATION OR TREATING BONE DISEASE BY ACTING ON OSTEOBLAST MITOCHONDRIA” (SEOUL NATIONAL UNIVERSITY R&DB FOUNDATION, priority 2021, published 2024)
